{
  "source": "the supplement of paper PMC10307832",
  "test_in_all_cases": "relative viability (nuclei count vs DMSO), 5 days (fraction); higher = more cells survive",
  "key": {"BAM7 + OSI-027": {"compound": "CCOC1=CC=CC=C1N=NC2=C(NN(C2=O)C3=NC(=CS3)C4=CC=CC=C4)C [BAM7] + COc1cccc2cc(-c3nc([C@H]4CC[C@H](C(=O)O)CC4)n4ncnc(N)c34)[nH]c12 [OSI-027] (partner 0.5 µM)", "in_short": "(§1)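 Relative viability equals treated-well nuclei counts divided by vehicle-well nuclei counts. Counts came from 4× images of lung cancer cell lines grown in 1536-well plates for 5 days after pin-tool dosing on the day after seeding. Dosing used one drug alone or a fixed anchor-drug dose plus five library-drug doses (not always all listed) in √10 steps, and values are medians of duplicate plates.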"}, "[1]": {"compound": "CCn1c(-c2nonc2N)nc2c(C#CC(C)(C)O)ncc(OC[C@H]3CCCNC3)c21 + CC1(C)CCC(c2ccc(Cl)cc2)=C(CN2CCN(c3ccc(C(=O)NS(=O)(=O)c4ccc(N[C@H](CCN5CCOCC5)CSc5ccccc5)c(S(=O)(=O)C(F)(F)F)c4)cc3)CC2)C1 [Navitoclax] (partner 0.5 µM)", "in_short": "as §1"}, "[2]": {"compound": "CCn1c(-c2nonc2N)nc2c(C#CC(C)(C)O)ncc(OC[C@H]3CCCNC3)c21 + COc1cccc2cc(-c3nc([C@H]4CC[C@H](C(=O)O)CC4)n4ncnc(N)c34)[nH]c12 [OSI-027] (partner 0.5 µM)", "in_short": "as §1"}, "[3]": {"compound": "CCn1c(-c2nonc2N)nc2c(C#CC(C)(C)O)ncc(OC[C@H]3CCCNC3)c21 + CS(=O)(=O)N1CCN(Cc2cc3nc(-c4cccc5[nH]ncc45)nc(N4CCOCC4)c3s2)CC1 [Pictilisib] (partner 1 µM)", "in_short": "as §1"}},
  "data": [
    {"cell line": "UMC-11", "values": [
      {"measurement": "relative viability", "setting": "BAM7 + OSI-027; first compound 0.5 µM", "value": 0.465},
      {"measurement": "relative viability", "setting": "BAM7 + OSI-027; first compound 5 µM", "value": 0.461},
      {"measurement": "relative viability", "setting": "BAM7 + OSI-027; first compound 15.81 µM", "value": 0.461},
      {"measurement": "relative viability", "setting": "BAM7 + OSI-027; first compound 50 µM", "value": 0.487},
      {"measurement": "relative viability", "setting": "[1]; first compound 0.01 µM", "value": 0.323},
      {"measurement": "relative viability", "setting": "[1]; first compound 0.03162 µM", "value": 0.288},
      {"measurement": "relative viability", "setting": "[1]; first compound 0.1 µM", "value": 0.323},
      {"measurement": "relative viability", "setting": "[1]; first compound 0.3162 µM", "value": 0.29},
      {"measurement": "relative viability", "setting": "[1]; first compound 1 µM", "value": 0.3},
      {"measurement": "relative viability", "setting": "[2]; first compound 0.01 µM", "value": 0.512},
      {"measurement": "relative viability", "setting": "[2]; first compound 0.03162 µM", "value": 0.489},
      {"measurement": "relative viability", "setting": "[2]; first compound 0.1 µM", "value": 0.515},
      {"measurement": "relative viability", "setting": "[2]; first compound 0.3162 µM", "value": 0.423},
      {"measurement": "relative viability", "setting": "[2]; first compound 1 µM", "value": 0.496},
      {"measurement": "relative viability", "setting": "[3]; first compound 0.01 µM", "value": 0.778},
      {"measurement": "relative viability", "setting": "[3]; first compound 0.03162 µM", "value": 0.681},
      {"measurement": "relative viability", "setting": "[3]; first compound 0.1 µM", "value": 0.771},
      {"measurement": "relative viability", "setting": "[3]; first compound 0.3162 µM", "value": 0.758},
      {"measurement": "relative viability", "setting": "[3]; first compound 1 µM", "value": 0.935}
    ]}
  ]
}
